This passage reports IC50 results from patent US20040067531A1, “Methods of modulating protein tyrosine kinase function with substituted indolinone compounds” (SUGEN, INC., priority 1997, published 2004).

Molecules are shown by their SMILES. pIC50: −log10 of the molar value.

For this assay, the target named is PDGF receptor (Homo sapiens, UniProt P09619). The assay is described as follows: ELISA assay measuring the kinase activity of the PDGF receptor in U1242 cells. The class given is cell-based. The settings on record: ligand stimulation, phosphotyrosine ELISA. As to the method:
All cell culture media, glutanine, and fetal bovine serum were purchased from Gibco Life Technologies (Grand Island, N.Y.) unless otherwise specified. All cells were grown in a humid atmosphere of 90-95% air and 5-10% CO2 at 37° C. All cell lines were routinely subcultured twice a week and were negative for mycoplasma as determined by the Mycotect method (Gibco).
For ELISA assays, cells (U1242, obtained from Joseph Schlessinger, NYU) were grown to 80-90% confluency in growth medium (MEM with 10% FBS, NEAA, 1 mM NaPyr and 2 mM GLN) and seeded in 96-well tissue culture plates in 0.5% serum at 25,000 to 30,000 cells per well. After overnight incubation in 0.5% serum-containing medium cells were changed to serum-free medium and treated with test compound for 2 hr in a 5% CO21 37° C. incubator. […] Absorbance at 410 nm with a reference wavelength of 630 nm was recorded about 15 to 30 min after ABTS addition.
The IC50 values were measured for several of the compounds of the invention.

Sequence of PDGF receptor (P09619 33-1106): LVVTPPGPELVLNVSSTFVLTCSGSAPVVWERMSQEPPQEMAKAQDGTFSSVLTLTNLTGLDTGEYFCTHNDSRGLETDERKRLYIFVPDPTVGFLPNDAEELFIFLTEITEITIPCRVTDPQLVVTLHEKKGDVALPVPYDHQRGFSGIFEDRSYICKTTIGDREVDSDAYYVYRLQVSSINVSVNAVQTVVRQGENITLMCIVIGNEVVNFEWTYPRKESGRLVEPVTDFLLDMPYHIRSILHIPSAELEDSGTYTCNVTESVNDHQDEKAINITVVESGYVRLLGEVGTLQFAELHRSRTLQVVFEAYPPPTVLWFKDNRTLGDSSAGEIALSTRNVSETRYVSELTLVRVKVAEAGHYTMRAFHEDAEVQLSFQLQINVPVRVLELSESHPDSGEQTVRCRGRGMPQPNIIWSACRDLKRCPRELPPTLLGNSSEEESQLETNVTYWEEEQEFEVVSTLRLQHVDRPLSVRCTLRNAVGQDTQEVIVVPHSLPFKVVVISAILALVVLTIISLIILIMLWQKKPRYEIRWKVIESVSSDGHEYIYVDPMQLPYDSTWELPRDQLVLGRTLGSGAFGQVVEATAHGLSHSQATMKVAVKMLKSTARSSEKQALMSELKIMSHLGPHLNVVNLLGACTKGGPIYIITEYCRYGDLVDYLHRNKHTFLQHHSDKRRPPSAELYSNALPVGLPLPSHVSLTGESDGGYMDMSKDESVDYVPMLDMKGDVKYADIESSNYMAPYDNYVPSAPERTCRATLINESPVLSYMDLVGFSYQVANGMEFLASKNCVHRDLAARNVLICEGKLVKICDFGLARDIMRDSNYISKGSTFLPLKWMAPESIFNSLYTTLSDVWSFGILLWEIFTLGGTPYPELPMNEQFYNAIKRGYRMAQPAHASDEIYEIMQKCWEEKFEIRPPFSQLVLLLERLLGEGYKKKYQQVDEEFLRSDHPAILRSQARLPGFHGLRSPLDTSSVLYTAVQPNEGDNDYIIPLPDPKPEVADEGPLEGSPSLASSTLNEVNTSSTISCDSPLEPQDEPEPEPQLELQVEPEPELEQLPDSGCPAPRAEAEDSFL

`O=C(O)CCc1c(C=C2C(=O)Nc3ccc(Cl)cc32)[nH]c2c1CCCC2` [IN-002, 3-[2-(5-Chloro-2-oxo-1,2-dihydro-indol-3-ylidenemethyl)-4,5.6,7-tetrahydro-1H-indol-3-yl]-propionic acid] had a pIC50 of 7.30.
